One data set has as its system platelet aggregation. The data set can be described thus: Antithrombotic activity: inhibition of collagen-induced platelet aggregation (Born and Cross) in platelet-rich plasma of healthy volunteers. It is filed as cell-based. The settings on record: Homo sapiens, 10 minutes preincubation at 37° C. The method, then:
2. Antithrombotic activity Method The thrombocyte aggregation is measured using the method of Born and Cross (J. Physiol. 170:397 (1964)) in platelet-rich plasma taken from healthy volunteers. To inhibit coagulation, the blood is mixed with 3.14% sodium citrate in a volume ratio of 1:10. Collagen-induced aggregation The pattern of the decrease in optical density of the platelet suspension is photometrically measured and recorded after the addition of the aggregation-triggering substance. The rate of aggregation is determined from the angle of inclination of the density curve. The point on the curve where there is maximum light transmittance is used to calculate the optical density. The concentration of collagen used is as small as possible but sufficient to produce an irreversible reaction curve. Standard commercial collagen produced by Hormonchemie of Munich is used. Before the addition of the collagen the plasma is incubated for 10 minutes at 37° C. with the substance. From the measurements obtained, the EC50 is determined graphically as the concentration giving a 50% change in the optical density in terms of the inhibition of aggregation.

The next data set addresses human thrombocytes. Put plainly: Inhibition of binding of ^3 H-BIBU 52 to human thrombocytes (competitive binding). The settings on record: human platelet-rich plasma diluted 1:10; 5 nM ^3 H-BIBU 52; 20 minutes, ambient temperature; read-out: Competitive binding of ^3 H-BIBU 52/test substance to human thrombocytes IC50. The method, then: 1. Inhibition of binding of ^3 H-BIBU 52 to human thrombocytes:
A suspension of human thrombocytes in plasma is incubated with ^3 H-BIBU 52 [=(3S,5S)-5-[(4'-amidino-4-biphenylyl)oxymethyl]-3-[(carboxyl)methyl]-2pyrrolidinone[3-^3 H-4-biphenylyl]] (see German Patent Application P 42 14 245.8 of the same applicant, dated 30.04.1992, internal reference: Case 5/1093-FL), which replaces the ^125 I fibrinogen ligand known from the literature, and various concentrations of the substance to be tested. The free and bound ligand are separated by centrifuging and quantified by scintillation counting. The inhibition of ^3 H-BIBU 52 binding by the test substance is determined from the measurements obtained.
In order to do this, donor blood is taken from an anticubital vein and anticoagulated with trisodium citrate (final concentration 13 mM). The blood is centrifuged for 10 minutes at 170×g and the supernatant platelet-rich plasma (PRP) is removed. The remaining blood is vigorously centrifuged once more in order to obtain plasma. The PRP is diluted 1:10 with autologous plasma. 750 μl are incubated with 50 μl of physiological saline solution, 100 μl of test substance solution, 50 μl of ^14 C-sucrose (3,700 Bq) and 50 μl of ^3 H-BIBU 52 (final concentration: 5 nM) at ambient temperature for 20 minutes. In order to measure the non-specific binding, 5 μl of BIBU 52 (final concentration: 30 μM) are used instead of the test substance. The samples are centrifuged for 20 seconds at 10,000× g and the supernatant is poured off. 100 μl thereof are measured in order to determine the free ligand. The pellet is dissolved in 500 μl of 0.2N NaOH, 450 μl are mixed with 2 ml of scintillator and 25 μl of 5N HCl and measured. The residual plasma remaining in the pellet is determined from the ^14 C-content and the bound ligand is determined from the ^3 H-measurement. After the non-specific binding has been deducted, the pellet activity is plotted against the concentration of the test substance and the concentration for a 50% inhibition of binding is determined.

Another data set relates to mice. Put plainly: Tolerance after intravenous administration of 30 mg/kg to three mice. It counts as in vivo. The settings on record: 30 mg/kg i.v., three mice in each case.

Where a name gives a salt, the structure may show the parent alone.

Consider 14 compounds from patent US5607944A, “Bicyclic heterocyclic compounds, pharmaceutical preparations containing these compounds and processes for their preparations” (Karl Thomae GmbH, priority 1993, dated 1997).

For the compound `O=C(O)[C@H]1CC[C@H](NC(=O)[C@H]2CC[C@H](c3nc4c(s3)CCNCC4)CC2)CC1` [4(4), 2-[trans-4-[(trans-4-carboxy-cyclohexyl)-aminocarbonyl]-cyclohexyl]-4,5,7,8-tetrahydro-6H-thiazolo[4,5-d]azepine-trifluoroacetate], the response with platelet aggregation was half-maximal at 110 nM (EC50). At human thrombocytes, the IC50 stood at 120 nM.
On the same counts, the results for `CC(C)OC(=O)[C@H]1CC[C@H](NC(=O)N2CCC(c3nc4c(s3)CCNCC4)CC2)CC1` [7(3), 2-[1-[(trans-4-isopropoxycarbonyl-cyclohexyl)-aminocarbonyl]-piperid-4-yl]-4,5,7,8-tetrahydro-6H-thiazolo[4,5-d]azepine-hydrochloride] are 1300 nM and 1500 nM.
In the data set on platelet aggregation, `O=C(N[C@H]1CC[C@H](C(=O)O)CC1)c1ccc(-c2nc3c(s2)CNCC3)cc1.O=C(O)C(F)(F)F` [Example 4, 2-[4-[(trans-4-Carboxy-cyclohexyl)-aminocarbonyl]-phenyl]-4,5,6,7-tetrahydro-thiazolo[5,4-c]pyridine-trifluoroacetate] showed an EC50 of 410 nM. The “death of animals after intravenous administration” value in the data set on mice is recorded as “no animals died”. For the same compound, at human thrombocytes, the IC50 amounted to 96 nM.
For `CC(C)COC(=O)[C@H]1CC[C@H](NC(=O)N2CCC(c3nc4c(s3)CCNCC4)CC2)CC1` [Example 7, 2-[1-[(trans-4-Isobutyloxycarbonyl-cyclohexyl)-aminocarbonyl]-piperid-4-yl]-4,5,7,8-tetrahydro-6H-thiazolo[4,5-d]azepine-hydrochloride], a half-maximal effect with platelet aggregation (EC50) was put at 660 nM. Moreover, the IC50 on human thrombocytes amounted to 1600 nM.
On the same counts, the results for `COC(=O)[C@H]1CC[C@H](NC(=O)c2ccc(-c3nc4c(s3)CNCC4)c(C)c2)CC1` [2(4), 2-[4-[(trans-4-methoxycarbonyl-cyclohexyl)-aminocarbonyl]-2-methyl-phenyl]-4,5,6,7-tetrahydro-thiazolo[5,4-c]pyridine-dihydrochloride] are 1440 nM and 450 nM.
Regarding `O=C(N[C@H]1CC[C@H](C(=O)O)CC1)c1ccc(-c2nc3c(s2)CCNCC3)cc1.O=C(O)C(F)(F)F` [4(1), 2-[4-[(trans-4-carboxy-cyclohexyl)-aminocarbonyl]-phenyl]-4,5,7,8-tetrahydro-6H-thiazolo[4,5-d]azepine-trifluoroacetate], the EC50 in the data set on platelet aggregation was 680 nM. For the same compound, the “death of animals after intravenous administration” value in the data set on mice is on record as “no animals died”. For the same compound, the IC50 on human thrombocytes is 75 nM.
For `O=C(N[C@H]1CC[C@H](C(=O)O)CC1)N1CCC(c2nc3c(s2)CCNCC3)CC1` [3(6), 2-[1-[(trans-4-carboxy-cyclohexyl)-aminocarbonyl]-piperid-4-yl]-4,5,7,8-tetrahydro-6H-thiazolo[4,5-d]azepine], in the data set with platelet aggregation, a half-maximal response (EC50) required 100 nM. Besides, the IC50 on human thrombocytes is 42 nM.
`O=C(O)CC1CCN(C(=O)c2ccc(-c3nc4c(s3)CNCC4)cc2)CC1` [2(1), 2-[4-[4-(carboxymethyl)-piperidinocarbonyl]-phenyl]-4,5,6,7-tetrahydro-thiazolo[5,4-c]pyridine-hydrochloride]: the response in the data set with platelet aggregation was half-maximal at 2600 nM (EC50). In addition, on human thrombocytes, the IC50 turned out to be 210 nM.
In the same order, the values of `O=C(N[C@H]1CC[C@H](C(=O)O)CC1)c1ccc(-c2nc3cnccc3[nH]2)cc1` [3(8), 2-[4-[(trans-4-carboxy-cyclohexyl)-aminocarbonyl]-phenyl]-1H-imidazo[4,5-c]pyridine] are 4200 nM and 2100 nM.
In the same order, the values of `Cc1cc(C(=O)N[C@H]2CC[C@H](C(=O)O)CC2)ccc1-c1nc2c(s1)CNCC2` [4(3), 2-[4-[(trans-4-carboxy-cyclohexyl)-aminocarbonyl]-2-methyl-phenyl]-4,5,6,7-tetrahydro-thiazolo[5,4-c]pyridine-trifluoraocetate] are 220 nM and 24 nM.
In the same order, the values of `CCOC(=O)[C@H]1CC[C@H](NC(=O)N2CCC(c3nc4c(s3)CCNCC4)CC2)CC1` [7(2), 2-[1-[(trans-4-ethoxycarbonyl-cyclohexyl)-aminocarbonyl]-piperid-4-yl]-4,5,7,8-tetrahydro-6H-thiazolo[4,5-d]azepine-hydrochloride] are 2600 nM and 1300 nM.
Consider `O=C(N[C@H]1CC[C@H](C(=O)O)CC1)N1CCC(c2nc3c(s2)CNCC3)CC1` [3(5), 2-[1-[(trans-4-carboxy-cyclohexyl)-aminocarbonyl]-piperid-4-yl]-4,5,6,7-tetrahydro-thiazolo[5,4-c]pyridine], for which the EC50 in the data set on platelet aggregation came to 100 nM. Further, on human thrombocytes, the IC50 was determined as 31 nM.
In the same order, the values of `COC(=O)[C@H]1CC[C@H](NC(=O)N2CCC(c3nc4c(s3)CCNCC4)CC2)CC1` [7(1), 2-[1-[(trans-4-methoxycarbonyl-cyclohexyl)-aminocarbonyl]-piperid-4-yl]-4,5,7,8-tetrahydro-6H-thiazolo[4,5-d]azepine-hydrochloride] are 1400 nM and 1400 nM.
Regarding `CN1CCc2nc(C3CCN(C(=O)N[C@H]4CC[C@H](C(=O)O)CC4)CC3)sc2CC1` [3(12), 2-[1-[(trans-4-carboxy-cyclohexyl)-aminocarbonyl]-piperid-4-yl]-6-methyl-4,5,7,8-tetrahydro-thiazolo[4,5-d]azepine], it took 2900 nM to reach a half-maximal effect in the data set with platelet aggregation (EC50). In addition, on human thrombocytes, the IC50 stood at 2000 nM.
